Source: PubChem BioAssay AID192 (DTP/NCI, 2004)
Values joined by “and” are separate entries in the source; they are usually repeats but may differ in a detail not shown here. Equal entries are not always repeated. Inconclusive results and toxic doses are left out. Numbered stars: 1 amine (or outer) side, 2 acyl side, 3 side chain; on linkers, the order of the positions; unused ones are H or OH. Bridge positions count the residues as written; N and C are the ends. Square brackets hold non-standard residues; d marks the D form. Peptide text beside a SMILES is read from it. I, II: the chains in the order shown. Actinocin(9to1) = Cc1c2oc3c(C)ccc(C(=O)[*:1])c3nc-2c(C(=O)[*:2])c(N)c1=O; aThr = C[C@H](O)[C@H](N)C(=O)O; NMeV = CN[C@H](C(=O)O)C(C)C; Sar = CNCC(=O)O

System: BDF1 mice, B16 melanoma ip, median survival T/C
Test: NCI In Vivo Anticancer Drug Screen. Data for tumor model B16 Melanoma (intraperitoneal) in B6D2F1 (BDF1) mice
Conditions: endpoint: median survival time, higher = longer survival
Procedure: The antitumor activity of compounds was measured in mice bearing transplantable tumors. Survival or tumor size were measured and the results are expressed as the measurement made in the treated group (T) divided by the measurement made in the vehicle treated control group (C). The tumor model used in this assay is B16 Melanoma (intraperitoneal) in B6D2F1 (BDF1) mice

[1] = dose: 100.0 mg/kg/injection, schedule: Q01DX009 (ip), vehicle: Klucel (hydroxypropylcellulose) (HPC)
[2] = dose: 400.0 mg/kg/injection, schedule: Q01DX009 (ip), vehicle: Klucel (hydroxypropylcellulose) (HPC)
[3] = dose: 200.0 mg/kg/injection, schedule: Q01DX009 (ip), vehicle: Klucel (hydroxypropylcellulose) (HPC)
[4] = dose: 12.5 mg/kg/injection, schedule: Q01DX009 (ip), vehicle: Klucel (hydroxypropylcellulose) (HPC)
[5] = dose: 25.0 mg/kg/injection, schedule: Q01DX009 (ip), vehicle: Klucel (hydroxypropylcellulose) (HPC)
[6] = dose: 50.0 mg/kg/injection, schedule: Q01DX009 (ip), vehicle: Klucel (hydroxypropylcellulose) (HPC)

`C=Cc1cc(OC)c2c(c1)c(=O)oc1c2cc(OC)c2c(O)ccc(C3OC(C(C)O)C(O)C3O)c21` (stereo not drawn) was tested, and the T/C [1] was 159 % of control and the T/C [2] was 113 % of control.
In the case of `COc1ccc(C2NC(=O)c3ccccc3N2)c(OC)c1OC` (stereo not drawn), the T/C [1] is reported as 103 % of control, the T/C [3] is reported as 112 % of control and the T/C [2] is reported as 109 % of control.
For `CCCc1c(Cl)nc(Cl)nc1Cl`, the T/C (dose: 6.25 mg/kg/injection, schedule: Q01DX009 (ip), vehicle: Klucel (hydroxypropylcellulose) (HPC)) was 110 % of control, the T/C [4] was 103 % of control and the T/C [5] was 101 % of control and 109 % of control.
In the case of `CN(C)C(=O)C1(c2ccc(Cl)cc2)CCN(CCCC(=O)c2ccc(F)cc2)CC1`, the T/C [4] is reported as 94 % of control, the T/C [5] is reported as 94 % of control and the T/C [6] is reported as 97 % of control.
In the case of `Cc1c2oc3c(C)ccc(C(=O)N[C@@H]4C(=O)N[C@H](C(C)C)C(=O)N5CCC[C@H]5C(=O)N(C)CC(=O)N(C)[C@@H](C(C)C)C(=O)O[C@H]4C)c3nc-2c(C(=O)N[C@@H]2C(=O)N[C@H](C(C)C)C(=O)N3CCC[C@H]3C(=O)N(C)CC(=O)N(C)[C@@H](C(C)C)C(=O)O[C@H]2C)c(N)c1=O` (I: [aThr][dV]P[Sar][NMeV] / II: [aThr][dV]P[Sar][NMeV]; ester I:1-I:C, II:1-II:C; linker I:N-II:N via Actinocin(9to1)), the T/C (dose: 0.03 mg/kg/injection, schedule: Q01DX009 (ip), vehicle: water) is reported as 157 % of control, the T/C (dose: 0.05 mg/kg/injection, schedule: Q01DX009 (ip), vehicle: water) is reported as 186 % of control and the T/C (dose: 0.05 mg/kg/injection, schedule: Q04DX003 (ip), vehicle: saline) is reported as 123 % of control and 124 % of control. The T/C (dose: 0.08 mg/kg/injection, schedule: Q01DX009 (ip), vehicle: saline) was 169 % of control, the T/C (dose: 0.13 mg/kg/injection, schedule: Q01DX009 (ip), vehicle: saline) was 44 % of control and the T/C (dose: 0.2 mg/kg/injection, schedule: Q04DX003 (ip), vehicle: saline) was 164 % of control. The T/C (dose: 0.22 mg/kg/injection, schedule: Q01DX009 (ip), vehicle: saline) was 42 % of control, the T/C (dose: 0.4 mg/kg/injection, schedule: Q04DX003 (ip), vehicle: saline) was 65 % of control and 69 % of control and the T/C (dose: 0.5 micrograms/kg/injection, schedule: Q01DX009 (ip), vehicle: saline) was 119 % of control. The T/C (dose: 2.0 micrograms/kg/injection, schedule: Q01DX009 (ip), vehicle: saline) was 116 % of control, the T/C (dose: 4.0 micrograms/kg/injection, schedule: Q01DX009 (ip), vehicle: saline) was 150 % of control and the T/C (dose: 6.25 micrograms/kg/injection, schedule: Q01DX009 (ip), vehicle: saline) was 101 % of control. For the same molecule, the T/C (dose: 6.3 micrograms/kg/injection, schedule: Q01DX009 (ip), vehicle: saline) was 96 % of control, the T/C (dose: 6.5 micrograms/kg/injection, schedule: Q01DX009 (ip), vehicle: saline) was 120 % of control and the T/C (dose: 10.8 micrograms/kg/injection, schedule: Q01DX009 (ip), vehicle: saline) was 112 % of control. The T/C (dose: 12.5 micrograms/kg/injection, schedule: Q01DX009 (ip), vehicle: water) was 120 % of control, the T/C (dose: 16.0 micrograms/kg/injection, schedule: Q01DX009 (ip), vehicle: saline) was 157 % of control and the T/C (dose: 16.0 micrograms/kg/injection, schedule: Q01DX017 (ip), vehicle: saline) was 185 % of control. For the same molecule, the T/C (dose: 21.6 micrograms/kg/injection, schedule: Q01DX009 (ip), vehicle: saline + alcohol) was 123 % of control, the T/C (dose: 25.0 micrograms/kg/injection, schedule: Q01DX009 (ip), vehicle: saline + alcohol) was 120 % of control and the T/C (dose: 32.0 micrograms/kg/injection, schedule: Q01DX005 (ip), vehicle: saline) was 120 % of control. The T/C (dose: 32.0 micrograms/kg/injection, schedule: Q01DX009 (ip), vehicle: saline) was 155 % of control, the T/C (dose: 32.0 micrograms/kg/injection, schedule: Q01DX017 (ip), vehicle: saline) was 200 % of control and the T/C (dose: 36.0 micrograms/kg/injection, schedule: Q01DX009 (ip), vehicle: saline + alcohol) was 152 % of control. The T/C (dose: 37.5 micrograms/kg/injection, schedule: Q01DX009 (ip), vehicle: saline + alcohol) was 153 % of control, the T/C (dose: 37.5 micrograms/kg/injection, schedule: Q01DX009 (ip), vehicle: saline) was 159 % of control and the T/C (dose: 37.5 micrograms/kg/injection, schedule: Q04DX003 (ip), vehicle: saline) was 118 % of control. The T/C (dose: 38.9 micrograms/kg/injection, schedule: Q04DX003 (ip), vehicle: saline + alcohol) was 123 % of control, the T/C (dose: 50.0 micrograms/kg/injection, schedule: Q01DX009 (ip), vehicle: saline + alcohol) was 158 % of control and the T/C (dose: 50.0 micrograms/kg/injection, schedule: Q01DX009 (ip), vehicle: water) was 152 % of control and 166 % of control. The T/C (dose: 60.0 micrograms/kg/injection, schedule: Q01DX009 (ip), vehicle: saline + alcohol) was 152 % of control and 161 % of control, the T/C (dose: 64.0 micrograms/kg/injection, schedule: Q01DX005 (ip), vehicle: saline) was 152 % of control and the T/C (dose: 64.8 micrograms/kg/injection, schedule: Q04DX003 (ip), vehicle: saline + alcohol) was 154 % of control. The T/C (dose: 75.0 micrograms/kg/injection, schedule: Q01DX009 (ip), vehicle: saline) was 186 % of control, the T/C (dose: 75.0 micrograms/kg/injection, schedule: Q04DX003 (ip), vehicle: water) was 123 % of control and the T/C (dose: 83.0 micrograms/kg/injection, schedule: Q01DX009 (ip), vehicle: saline) was 175 % of control. The T/C (dose: 100.0 micrograms/kg/injection, schedule: Q01DX009 (ip), vehicle: saline + alcohol) was 169 % of control, the T/C (dose: 100.0 micrograms/kg/injection, schedule: Q01DX009 (ip), vehicle: water) was 175 % of control and the T/C (dose: 108.0 micrograms/kg/injection, schedule: Q04DX003 (ip), vehicle: saline + alcohol) was 150 % of control and 159 % of control and 160 % of control. The T/C (dose: 128.0 micrograms/kg/injection, schedule: Q01DX005 (ip), vehicle: saline) was 165 % of control, the T/C (dose: 128.0 micrograms/kg/injection, schedule: Q04DX003 (ip), vehicle: saline) was 150 % of control and the T/C (dose: 180.0 micrograms/kg/injection, schedule: Q04DX003 (ip), vehicle: saline + alcohol) was 164 % of control and 172 % of control and 176 % of control. The T/C (dose: 225.0 micrograms/kg/injection, schedule: Q04DX003 (ip), vehicle: saline + alcohol) was 91 % of control, the T/C (dose: 225.0 micrograms/kg/injection, schedule: Q04DX003 (ip), vehicle: saline) was 159 % of control and the T/C (dose: 256.0 micrograms/kg/injection, schedule: Q04DX003 (ip), vehicle: saline) was 165 % of control. The T/C (dose: 300.0 micrograms/kg/injection, schedule: Q04DX003 (ip), vehicle: saline) was 168 % of control and 169 % of control, the T/C (dose: 300.0 micrograms/kg/injection, schedule: Q04DX003 (ip), vehicle: water) was 106 % of control and the T/C (dose: 500.0 micrograms/kg/injection, schedule: Q04DX003 (ip), vehicle: saline + alcohol) was 101 % of control. The T/C (dose: 512.0 micrograms/kg/injection, schedule: Q01DX001 (ip), vehicle: saline) was 92 % of control and the T/C (dose: 600.0 micrograms/kg/injection, schedule: Q04DX003 (ip), vehicle: saline) was 231 % of control.
`CN(C)C1CCN(Cc2ccccc2)CC1` was tested, and the T/C (dose: 50.0 mg/kg/injection, schedule: Q04DX003 (ip), vehicle: saline) was 100 % of control, the T/C (dose: 100.0 mg/kg/injection, schedule: Q04DX003 (ip), vehicle: saline) was 90 % of control and the T/C (dose: 200.0 mg/kg/injection, schedule: Q04DX003 (ip), vehicle: saline) was 93 % of control.
For `CCP(=S)(CC)P(=S)(CC)CC`, the T/C [6] was 101 % of control, the T/C [1] was 112 % of control and the T/C [3] was 94 % of control.
`Cc1cccc(C)c1NC(=O)Nc1cccc(Cl)c1` was tested, and the T/C [1] was 100 % of control, the T/C (dose: 100.0 mg/kg/injection, schedule: Q04DX003 (ip), vehicle: Klucel (hydroxypropylcellulose) (HPC)) was 100 % of control and the T/C [3] was 100 % of control. For the same molecule, the T/C (dose: 200.0 mg/kg/injection, schedule: Q04DX003 (ip), vehicle: Klucel (hydroxypropylcellulose) (HPC)) was 100 % of control, the T/C [2] was 86 % of control and the T/C (dose: 400.0 mg/kg/injection, schedule: Q04DX003 (ip), vehicle: Klucel (hydroxypropylcellulose) (HPC)) was 100 % of control.
`Cc1ccc(N=Nc2c(O)ccc3ccccc23)c(C)c1` was tested, and the T/C [6] was 92 % of control and the T/C [2] was 150 % of control.
With `CCC1=C[C@H]2CN(CCc3c([nH]c4ccccc34)[C@@](C(=O)OC)(c3cc4c(cc3OC)N(C)[C@H]3[C@@](O)(C(=O)OC)[C@H](OC(C)=O)[C@]5(CC)C=CCN6CC[C@]43[C@@H]65)C2)C1` the T/C (dose: 0.05 mg/kg/injection, schedule: Q01DX009 (ip), vehicle: saline) was 116 % of control, the T/C (dose: 0.06 mg/kg/injection, schedule: Q01DX009 (ip), vehicle: water) was 100 % of control and 107 % of control and the T/C (dose: 0.1 mg/kg/injection, schedule: Q01DX009 (ip), vehicle: saline) was 116 % of control. For the same molecule, the T/C (dose: 0.13 mg/kg/injection, schedule: Q01DX009 (ip), vehicle: water) was 103 % of control and 120 % of control, the T/C (dose: 0.25 mg/kg/injection, schedule: Q01DX009 (ip), vehicle: water) was 108 % of control and the T/C (dose: 0.8 mg/kg/injection, schedule: Q01DX009 (ip), vehicle: saline) was 181 % of control. For the same molecule, the T/C (dose: 1.6 mg/kg/injection, schedule: Q01DX009 (ip), vehicle: saline) was 208 % of control and the T/C (dose: 4.0 mg/kg/injection, schedule: Q04DX003 (ip), vehicle: water) was 175 % of control.
